Like-named read-outs stand apart in the source and are kept apart here.
How the values were obtained:
[1] = tested on: HCC; conditions: HCC patients of Asia-Pacific region; cited from earlier work
[2] = tested on: unresectable HCC; conditions: 1st line treatment, patients with unresectable HCC; cited from earlier work
[3] = tested on: HUH7 human HCC xenografts; format: in vivo; conditions: 21 days, HUH7 xenograft
Procedure: 12 days after the injection of tumor cells the tumor volumes are 138±24 mm^3.
Each group contains 8 animals. […] The application volumes in all experiments were 10 ml/kg.

[4] = tested on: PLC/PFR/5 human HCC xenografts; experiment: PLC/PFR/5 human HCC subcutaneous xenograft in female nude mice; conditions: 24 days; for % T/C (ΔT/ΔC %, tumor volume): PLC/PFR/5 xenograft
[5] = 50 mg/kg p.o. qd, statistically significant

| SMILES | median overall survival [1] [months] | median overall survival [2] [months] | % T/C (ΔT/ΔC %, tumor volume) ([3]; 10 mg/kg p.o. qd) [%] | % T/C (ΔT/ΔC %, tumor volume) ([3]; 30 mg/kg p.o. qd, statistically significant) [%] | % T/C (ΔT/ΔC %, tumor volume) [3, 5] [%] | % T/C (ΔT/ΔC %, tumor volume) ([4]; 10 mg/kg p.o. qd) [%] | % T/C (ΔT/ΔC %, tumor volume) ([4]; 30 mg/kg p.o. qd) [%] | % T/C (ΔT/ΔC %, tumor volume) [4, 5] [%] | effect on body weight as compared to the vehicle-treated group ([4]; 10, 30 and 50 mg/kg p.o. qd) |
| --- | --- | --- | --- | --- | --- | --- | --- | --- | --- |
| CNC(=O)c1cc(Oc2ccc(NC(=O)Nc3ccc(Cl)c(C(F)(F)F)c3)cc2)ccn1 [sorafenib] | 6.5 | 10.7 | – | – | – | – | – | – | – |
| CN1CCN(c2ccc3nc(-c4c(N)c5c(F)cccc5[nH]c4=O)[nH]c3c2)CC1 [Compound I, 4-amino-5-fluoro-3-[6-(4-methylpiperazin-1-yl)-1H-benzimidazol-2-yl]-1H-quinolin-2-one] | – | – | 75 | 40 | 20 | 67 | 47 | 19 | no significant effect on body weight |

Source: US8741903B2, “Organic compound for use in the treatment of hepatocellular cancer (HCC)” (priority 2010, dated 2014)
